Experiments:
Fmr1 KO2 mice = experiment: Marble burying test, mouse model of Fragile X Syndrome; format: in vivo; conditions: 10 mg/kg/d
Procedure: The purpose of this study was to test Compound 1 for treating Fragile X Syndrome. This study utilized Fmr1 KO mice, an animal model of Fragile X Syndrome.
The Fmr1 KO mice (C57BL/6 background) were kindly provided the FRAXA Foundation. Mice were housed in groups of the same genotype in a temperature and humidity controlled room with a 12-h light-dark cycle (lights on 7 am to 7 pm). Testing was conducted during the light phase. Food and water were available ad libitum. Testing was conducted on Fmr1 KO mice and their wild-type littermates. They were housed in commercial plastic cages purchased in the UK. Experiments were conducted in line with the requirements of the UK Animals (Scientific Procedures) Act, 1986.
The dosing protocol used is shown below. Mice were dosed at 6-7 weeks by intraperitoneal (i.p.) infusion by osmotic pump (0.5 μl/hour) for 1 week. The solution of 0.9% saline was used as a vehicle, and 10 mice were dosed per each group.

[1] = Cardiovascular safety study in monkeys; format: in vivo
[2] = system: focal cerebral ischemia (permanent MCA occlusion); experiment: Rat stroke model, permanent MCA occlusion; format: in vivo, Male Wistar rats
[3] = 14-day acute toxicity and 28-day toxicology study in rats; format: in vivo
Procedure: The compound was also shown to be negative in a GLP phototoxicity assay. […] Both 14-day acute toxicity and 28-day toxicology study were performed in rats with Compound 1 along with minocycline for comparison. Animals were administered daily oral doses from 15 to 150 mg/kg for up to 4 weeks followed by a recovery period.

MBP-induced EAE = experiment: MBP-induced Lewis rat EAE; format: in vivo; conditions: i.p. daily from day 9
Text: The inhibitory activity of Compound 1 was characterized in both mouse and rat models of EAE. Mice were immunized s.c. with myelin oligodendrocyte glycoprotein (MOG) peptide 35-55 in CFA and later injected i.v. with Pertussis toxin. Mice were randomized at day 10 and given compound i.p. Compounds were subsequently administered daily and the animals assessed for clinical score. Mice were scored as follows: 0=no disease; 1=limp tail; 2=paralysis of one or both hind limbs; 4=paralysis of both hind- and forelimbs. […] Rats were dosed daily i.p. with compound starting day 9. Rats were scored daily and cumulative scores were determined by adding the average daily scores over the experimental period. […] The average daily scores+/−SEM and the cumulative average scores are shown. Cumulative average scores were determined by adding the average daily scores over the experimental period.

[4] = system: hippocampal neurons from Fmr1 KO mice; experiment: Dendritic spine development in hippocampal primary cultures; format: cell-based, mouse; conditions: FX hippocampal primary cultures, 20 μM, 17 hour treatment, 18 DIV
Procedure: The purpose of this study was to investigate the direct effects of tetracycline compounds, such as minocycline and Compound 1, on dendritic spine development in the cell derived from the mouse model of Fragile X Syndrome (FXS) and their wild-type litter mate control mouse embryos.
The compartmentalized cell culture was used in the experiments. Neuronal primary cultures of the hippocampus at embryonic day 16 (E16) were prepared from Fmr1 KO and WT litter mate control mouse embryos, and three independent cultures were used for the analysis. The in vitro system with […] was used to monitor dendritic spine morphogenesis during a time-course of culture, and immunostaining with synaptophysin was used to distinguish presynaptic boutons. The dendritic spines were usually formed between 7 and 14 days in vitro (DIV). By 14 DIV most dendiritic protrusions were spines; however, their maturation continued until 21 DIV. The effects of tetracycline compounds were evaluated at 18 DIV. Confocal Imagining analysis was performed at the University of Chile imaging center. Quantitative analysis of dentritic spine length, size distribution for dendritic spine heads and morphology of the hippocampal neurons from WT control and Fmr1 KO mice was performed after 17 hour treatment with 20 μM tetracycline compounds or with PBS control.

hERG/ion channel = hERG/ion channel (Homo sapiens, UniProt Q12809); experiment: hERG/ion channel assays; conditions: pre-clinical safety studies
hERG/ion channel, sequence (Q12809 whole entry): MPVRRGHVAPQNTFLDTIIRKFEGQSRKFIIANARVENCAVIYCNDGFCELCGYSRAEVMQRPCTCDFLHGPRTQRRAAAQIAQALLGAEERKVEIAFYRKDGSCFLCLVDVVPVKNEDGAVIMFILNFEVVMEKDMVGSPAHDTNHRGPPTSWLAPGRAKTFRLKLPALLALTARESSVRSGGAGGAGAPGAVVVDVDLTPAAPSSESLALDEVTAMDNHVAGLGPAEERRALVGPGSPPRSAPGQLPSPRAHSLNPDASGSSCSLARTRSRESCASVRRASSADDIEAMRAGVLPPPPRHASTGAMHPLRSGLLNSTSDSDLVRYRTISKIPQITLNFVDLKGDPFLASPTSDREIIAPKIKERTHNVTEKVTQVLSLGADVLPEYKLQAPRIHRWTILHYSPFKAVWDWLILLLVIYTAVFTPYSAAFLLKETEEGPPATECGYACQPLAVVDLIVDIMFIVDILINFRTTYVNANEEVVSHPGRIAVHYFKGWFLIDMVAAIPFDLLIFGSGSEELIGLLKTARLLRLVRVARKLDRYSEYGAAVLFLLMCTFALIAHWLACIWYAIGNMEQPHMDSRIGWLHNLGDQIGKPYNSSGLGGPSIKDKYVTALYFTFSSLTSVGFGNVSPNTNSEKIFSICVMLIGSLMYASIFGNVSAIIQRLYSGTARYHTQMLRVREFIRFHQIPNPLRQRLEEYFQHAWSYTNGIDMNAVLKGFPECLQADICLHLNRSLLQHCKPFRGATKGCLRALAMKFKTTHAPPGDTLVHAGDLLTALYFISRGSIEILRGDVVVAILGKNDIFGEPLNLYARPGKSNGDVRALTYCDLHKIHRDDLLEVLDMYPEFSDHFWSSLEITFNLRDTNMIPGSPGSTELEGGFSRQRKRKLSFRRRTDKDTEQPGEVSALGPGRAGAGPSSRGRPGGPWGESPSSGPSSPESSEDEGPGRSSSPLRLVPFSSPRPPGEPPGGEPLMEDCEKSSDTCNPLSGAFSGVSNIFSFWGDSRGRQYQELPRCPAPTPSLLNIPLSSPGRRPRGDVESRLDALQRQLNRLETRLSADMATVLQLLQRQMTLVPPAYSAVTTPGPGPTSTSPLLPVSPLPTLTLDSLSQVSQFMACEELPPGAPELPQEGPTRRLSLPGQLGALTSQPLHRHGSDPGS

bacterial ribosome = experiment: Transcription/translation (TnT) in vitro assay of bacterial protein synthesis; format: biochemical
Procedure: The antibacterial activity of Compound 1 was evaluated against comparator compounds minocycline and doxycycline. Test compounds are considered to have antibacterial activity if they inhibit bacterial growth at test concentrations below 4 μM. […] Further, mechanistic evidence of their antibacterial activity was evaluated using the transcription/translation (TnT) in vitro assay which directly measures the bacterial cellular efficiency of protein synthesis with and without test compounds present.

SMILES: CCc1cc(N(C)C)c2c(c1O)C(=O)C1=C(O)[C@]3(O)C(=O)C(C(N)=O)=C(O)[C@@H](N(C)C)[C@@H]3C[C@@H]1C2 [Compound 1]
- Marble burying deficit of Fmr1 KO2 mice (Fmr1 KO2 mice): significantly rescued
- Cardiovascular safety findings [1]: No treatment-related effects were observed
- Neurological score ([2]; 40 mg/kg i.v. at −90 min, 90 min, 6 hr after MCAO, permanent): 1.1 ± 0.3
- Infarct volume (Means ± SD) ([2]; 40 mg/kg i.v. at −90 min, 90 min, 6 hr after MCAO, permanent, 24 hr after MCAO): 145.7 ± 33.9 mm3
- Effect on infarct volume ([2]; permanent occlusion, treatment started at 90 min pre-occlusion): statistically significant reductions in infarct volume
- Thyroid tissue staining ([3]; at comparable doses to minocycline): little or no thyroid tissue staining
- Adverse effects ([3]; daily oral doses from 15 to 150 mg/kg for up to 4 weeks): Few adverse effects were observed at any dose
- Effect on clinical course of EAE (onset, maximum disease severity) (MBP-induced EAE): both delayed the onset and inhibited the maximum disease severity more potently than minocycline
- Spine number [4]: 0.28±0.05
- Effects in hERG/ion channel assays (hERG/ion channel): no significant effects
- Protein Synthesis Inhibition (IC50) (bacterial ribosome): >100 µg/mL

From US20150174144A1, “TETRACYCLINE COMPOUNDS FOR TREATING NEURODEGENERATIVE DISORDERS” (PARATEK PHARMACEUTICALS, INC., priority 2012, published 2015)
